{"source": "paper PMC8156508", "about": "“Ileo-Colon Targeting of the Poorly Water-Soluble Drug Celecoxib Using a pH-Dependent Coating in Combination with Self-Emulsifying Drug Delivery or Solid Dispersion Systems” (Pharmaceutics, 2021)", "key": {"[1]": {"set-up": "method as in PMID 26401428", "conditions": "cited from earlier work"}, "[2]": {"conditions": "pH 7; cited from earlier work"}, "[3]": {"assay": "Saturation concentration of CXB in oily phases, surfactants and co-surfactants/co-solvents", "assay_type": "physicochemical", "conditions": "30 °C", "procedure": "To assess the saturation concentration of CXB in different oily phases (Capryol 90, Captex 200 P, Captex 355 EP/NF, isopropyl myristate, Maisine CC, and Peceol), surfactants (Cremophor RH40, Labrasol, Tween 20, and Tween 80), and co-surfactants/co-solvents (Capmul PG-8 NF, PEG 400, Plurol oleique CC 497, and tetraglycol), an excess amount of CXB was added to the liquid excipients and placed in a tube rotator at 20 rpm and 30 °C for a day. After that, samples were centrifuged at 14,000 rpm for 20 min and the supernatant was appropriately diluted in methanol. The drug concentration was determined at 252 nm with a UV-VIS spectrophotometer Unicam UV 500A (Gemini, Apeldoorn, The Netherlands)."}, "[4]": {"set-up": "method as in PMID 26146768", "conditions": "cited from earlier work"}, "[5]": {"set-up": "method as in PMID 14603484", "conditions": "rats; cited from earlier work"}}, "data": [{"smiles": "CCCCCCCCCCCCOS(=O)(=O)[O-].[Na+]", "note": "[SDS, sodium dodecyl sulfate]", "values": [{"measurement": "critical micelle concentration", "setting": "[1]", "value": 8, "unit": "mM"}]}, {"smiles": "Cc1ccc(-c2cc(C(F)(F)F)nn2-c2ccc(S(N)(=O)=O)cc2)cc1", "note": "[CXB, Celecoxib]", "values": [{"measurement": "solubility", "setting": "[2]", "value": "3 to 7", "unit": "µg/mL"}, {"measurement": "solubility of CXB in surfactants", "setting": "[3]; Tween 20, Tween 80, cremophor RH40, Labrasol ALF", "value": "comparable CXB solubilities"}, {"measurement": "solubility of CXB in co-surfactants/co-solvents", "setting": "[3]; in PEG 400 and tetraglycol", "value": "highest solubility"}, {"measurement": "solubility of CXB in oily phases", "setting": "[3]; in capryol 90, among six oily phases", "value": "highest amount"}]}, {"smiles": "C[C@]12C=CC(=O)C=C1CC[C@@H]1[C@@H]2[C@@H](O)C[C@@]2(C)[C@H]1CC[C@]2(O)C(=O)CO", "note": "[prednisolone]", "values": [{"measurement": "effect of pH-dependent colon targeted film coating on in vitro release profile of solid SMEDDS", "setting": "[4]", "value": "not impacted"}]}, {"smiles": "CC(=O)O[C@H]1C(=O)[C@@]2(C)[C@H]([C@H](OC(=O)c3ccccc3)[C@]3(O)C[C@H](OC(=O)[C@H](O)[C@@H](NC(=O)c4ccccc4)c4ccccc4)C(C)=C1C3(C)C)[C@]1(OC(C)=O)CO[C@@H]1C[C@@H]2O", "note": "[paclitaxel]", "values": [{"measurement": "higher bioavailability by HPMC precipitation inhibition in SEDDS", "setting": "[5]", "value": 5, "unit": "fold"}]}]}
